This note sets out measurements from patent US8637536B2, “Pyrimidinone compounds for use in the treatment of diseases or conditions mediated by Lp-PLA2” (Glaxo Group Limited, priority 2010, dated 2014).

This test concerns the target T1, recombinant human Lp-PLA2 (Homo sapiens, UniProt Q13093).
T1 sequence (Q13093 22-441): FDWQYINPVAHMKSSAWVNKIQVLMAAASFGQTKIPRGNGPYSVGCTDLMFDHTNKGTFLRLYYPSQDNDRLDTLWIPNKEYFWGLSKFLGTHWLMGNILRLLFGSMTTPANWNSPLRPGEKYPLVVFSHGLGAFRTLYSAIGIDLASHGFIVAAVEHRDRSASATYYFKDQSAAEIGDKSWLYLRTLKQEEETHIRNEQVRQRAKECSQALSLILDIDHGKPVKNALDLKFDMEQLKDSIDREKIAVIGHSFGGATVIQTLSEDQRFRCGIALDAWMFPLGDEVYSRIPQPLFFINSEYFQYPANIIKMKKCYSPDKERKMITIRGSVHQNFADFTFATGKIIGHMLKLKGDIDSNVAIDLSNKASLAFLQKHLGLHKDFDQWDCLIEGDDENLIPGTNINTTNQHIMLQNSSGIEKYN
The test is described as follows: Recombinant human Lp-PLA2 assay (rhLp-PLA2, PED6 assay). It counts as biochemical. An excerpt:
(1) Recombinant Human Lp-PLA2 Assay (rhLp-PLA2) (Also Referred to as “PED6” Assay)
N-((6-(2,4-dinitrophenyl)amino)-hexanoyl)-2-(4,4-difluoro-5,7-dimethyl-4-bora-3a,4a-diaza-s-indacene-3-pentanoyl)-1-hexadecanoyl-sn-glycero-3-phosphoethanolamine, triethylammonium salt (PED6) is a commercially available fluorescently-labelled phospholipid, which is commercially available from Molecular Probes. There is a quenching […] position and a Bodipy fluorescein (FL) group in the sn2 position.
The PED6 assay was run as an unquenched 10 μL assay. Compounds source plate was prepared by making 1:3 (by volume) serial dilution of the compounds into pure DMSO on 384-well microplate. […] 5 μL of recombinant human Lp-PLA2 enzyme (2 nM rhLp-PLA2 in assay buffer of 50 mM HEPES, pH7.4, 150 mM NaCl, 1 mM CHAPS) was added to each well of the plate with compounds. Plates were centrifuged for 10 sec at 500 rpm. […] Plates were centrifuged for 10 sec at 500 rpm. Plate was covered to protect from light and incubated for 20 min at room temperature. […] PIC50 data, curve and QC analysis was conducted by using XL fit module in Excel.

The mark [1] stands for this setting: text thresholds, upper limit for pIC50 in this assay is 9.3, read-out: pIC50 values in the PED6 assay (converted).
The mark [2] stands for this setting: upper limit for pIC50 obtained in this PED6 assay is 9.3, read-out: rhLp-PLA2 (PED6 assay) (pIC50) (converted).

The structures appear in SMILES notation. Counter-ions that a name gives are not always drawn. Like-named read-outs stand apart in the source and are kept apart here.

In the case of `O=c1nc(NCCc2ccc(Oc3ccc(Cl)c(C(F)(F)F)c3)cc2)[nH]cc1Cc1cncnc1` [E11, 2-{[2-(4-{[4-Chloro-3-(trifluoromethyl)phenyl]oxy}phenyl)ethyl]amino}-5-(5-pyrimidinylmethyl)-4(1H)-pyrimidinone], the IC50 under setting [1] is ≤ 1 nM and the IC50 under setting [2] is 1 nM.

As to `Cn1cc(Cc2c[nH]c(OCCc3ccc(Oc4ccc(Cl)c(C(F)(F)F)c4)cc3)nc2=O)cn1` [E22, 2-{[2-(4-{[4-Chloro-3-(trifluoromethyl)phenyl]oxy}phenyl)ethyl]oxy}-5-[(1-methyl-1H-pyrazol-4-yl)methyl]-4(1H)-pyrimidinone trifluoroacetate], the IC50 under setting [2] is 0.794 nM.

In the case of `COc1ncc(Cc2c[nH]c(OCCc3ccc(Oc4ccc(Cl)c(C(F)(F)F)c4)cc3)nc2=O)cn1` [E24, 2-{[2-(4-{[4-Chloro-3-(trifluoromethyl)phenyl]oxy}phenyl)ethyl]oxy}-5-{[2-(methyloxy)-5-pyrimidinyl]methyl}-4(1H)-pyrimidinone], the IC50 runs as follows: under setting [1], ≤ 1 nM; under setting [2], 0.794 nM.

In the case of `COc1ncc(Cc2cn(C)c(OCCc3ccc(Oc4ccc(Cl)c(C(F)(F)F)c4)cc3)nc2=O)cn1` [E25, 2-{[2-(4-{[4-Chloro-3-(trifluoromethyl)phenyl]oxy}phenyl)ethyl]oxy}-1-methyl-5-{[2-(methyloxy)-5-pyrimidinyl]methyl}-4(1H)-pyrimidinone], the IC50 under setting [1] is ≤ 1 nM.

On to `O=c1nc(OCCc2cc(F)c(Oc3ccc(Cl)c(C(F)(F)F)c3)c(F)c2)[nH]cc1Cc1cncnc1` [E29, 2-{[2-(4-{[4-Chloro-3-(trifluoromethyl)phenyl]oxy}-3,5-difluorophenyl)ethyl]oxy}-5-(5-pyrimidinylmethyl)-4(1H)-pyrimidinone], for which the IC50 under setting [1] was ≤ 1 nM.

`Cn1cc(Cc2cncnc2)c(=O)nc1OCCc1cc(F)c(Oc2ccc(Cl)c(C(F)(F)F)c2)c(F)c1` [E30, 2-{[2-(4-{[4-Chloro-3-(trifluoromethyl)phenyl]oxy}-3,5-difluorophenyl)ethyl]oxy}-1-methyl-5-(5-pyrimidinylmethyl)-4(1H)-pyrimidinone]: under setting [1], the IC50 is ≤ 1 nM.

Take `O=c1nc(OCCc2ccc(Oc3ccc(Cl)c(C(F)(F)F)c3)c(F)c2)[nH]cc1Cc1cncnc1` [E31, 2-{[2-(4-{[4-Chloro-3-(trifluoromethyl)phenyl]oxy}-3-fluorophenyl)ethyl]oxy}-5-(5-pyrimidinylmethyl)-4(1H)-pyrimidinone trifluoroacetate]: under setting [1], the IC50 was ≤ 1 nM.

For the compound `COc1ncc(Cc2c[nH]c(SCc3ccc(Oc4ccc(F)cc4)cc3)nc2=O)cn1` [E52, 2-((4-(4-fluorophenoxy)benzyl)thio)-5-((2-methoxypyrimidin-5-yl)methyl)pyrimidin-4(1H)-one], the IC50 under setting [1] was ≤ 10 nM.

Consider `COc1ncc(Cc2cn(C)c(SCc3ccc(Oc4ccc(F)cc4)cc3)nc2=O)cn1` [E53, 2-[({4-[(4-fluorophenyl)oxy]phenyl}methyl)thio]-1-methyl-5-{[2-(methyloxy)-5-pyrimidinyl]methyl}-4(1H)-pyrimidinone], for which, under setting [1], the IC50 was ≤ 10 nM.

Regarding `Cn1cc(Cc2c[nH]c(SCc3ccc(Oc4ccc(Cl)c(C(F)(F)F)c4)c(C#N)c3)nc2=O)cn1` [E58, 2-(4-chloro-3-(trifluoromethyl)phenoxy)-5-(((5-((1-methyl-1H-pyrazol-4-yl)methyl)-4-oxo-1,4-dihydropyrimidin-2-yl)thio)methyl)benzonitrile, trifluoroacetic acid salt], the IC50 runs as follows: under setting [1], ≤ 1 nM; under setting [2], ≤ 0.501 nM.

On to `Cn1cc(Cc2cn(C)c(SCc3ccc(Oc4ccc(F)c(C(F)(F)F)c4)c(C#N)c3)nc2=O)cn1` [E60, 2-(4-fluoro-3-(trifluoromethyl)phenoxy)-5-(((1-methyl-5-((1-methyl-1H-pyrazol-4-yl)methyl)-4-oxo-1,4-dihydropyrimidin-2-yl)thio)methyl)benzonitrile, trifluoroacetic acid salt], for which, under setting [1], the IC50 was ≤ 1 nM.
